Source: patent US12187713B2, “Immunomodulators, compositions and methods thereof” (Betta Pharmaceuticals Co., Ltd, priority 2019, dated 2025)

Assays:
PD-1/PD-L1 = PD-1/PD-L1 (Homo sapiens (Human), UniProt Q9NZQ7); assay: PD-1/PD-L1 Binding Assay (Alphascreen); details: numeric values
Procedure, shortened: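 PD-1/PD-L1 binding detected by anti-6×His acceptor and streptavidin donor beads after 120 min in the dark at 25 °C. Beforehand, the two proteins were incubated 15 min at 25 °C with inhibitor at 0.015–300 nM (1% DMSO). IC50 comes from a log concentration–response curve.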

[1] = Pharmacokinetic Assay, single oral dose 100 mg/kg (Table 11); format: in vivo; details: mouse, C57 female mice, oral (intragastric), plasma
Protocol: Adult C57 female mice were received to single-dose of the test compounds with […], 10% Kolliphor^@HS 15 and 80% saline as excipients, the mice (n=9) were giving oral administration (intragastric administration) with the compounds at a dose of 100 mg/kg. Time of blood collection: 15 min, 30 min, 1 h, 2 h, 4 h, 7 h, 24 h. Approximately 0.1 mL of whole blood was collected from retro-orbital venous plexus of 3 mice at each time point, and placed into tubes that contained K2-EDTA as an anticoagulant. The whole blood was centrifuged at 4° C. and 4000 rpm for 10 min. The plasma was transferred into centrifuge tubes, and stored at −20° C. until being analyzed. Concentrations of test compounds in the plasma samples were analyzed with liquid chromatography-tandem mass spectrometry (LC-MS/MS). Plasma concentration-time data of individual animals was analyzed using Microsoft Excel 2010. Non-compartmental model was introduced in concentration analysis. The pharmacokinetic parameters of the test compounds were calculated using WinNonlin (version 4.1; Pharsight) software.

[2] = Pharmacokinetic Assay, single oral dose 5 mg/kg (Table 12); format: in vivo; details: mouse, plasma concentration, C57 female mice, single oral dose 5 mg/kg
Procedure, shortened: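 Adult female C57 mice (n=3) got one intragastric dose of 5 mg/kg in 15% DMSO, 10% Kolliphor HS 15, 75% saline. Retro-orbital blood was taken at 30 min, 2 h and 4 h into K2-EDTA. Plasma levels were measured by LC-MS/MS.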

[3] = system: PD-1/PD-L1 interaction (Jurkat T cells expressing hPD-1 and PD-L1 aAPC/CHO-K1 cells expressing hPD-L1); assay: NFAT Assay (PD-1/PD-L1 Blockade Bioassay, luciferase reporter); format: cell-based; details: Homo sapiens; PD-1 effector Jurkat cells + PD-L1 aAPC/CHO-K1 cells, Bio-Glo luciferase
Protocol: PD-1/PD-L1 Blockade Bioassay contains two cells: PD-1 Effector Cells, which are the Jurkat T cells expressing hPD-1 and luciferase reporter genes; PD-L1 aAPC/CHO-K1 Cells, which are the CHO-K1 cells expressing hPD-L1 and activate TCR's cell surface proteins. The antibody or small molecule compound is incubated with these two cells for a period of time, and the amount of the product is detected using Bio-Glo Luciferase reagent and chemiluminescence method to reflect the influence of antibody or small molecule compound on PD-1/PD-L1 interaction.
Cell medium: 36 mL Ham's F-12; 4 mL FBS
1) Resuscitate PD-L1 aAPC/CHO-K1 Cells on the first day and the cells were suspended and counted with cell recovery medium. The cells were diluted to 2.65*10^5/ml with cell medium. Seed cells at density of 6000 cells/well of 384-wells plates, incubator for 16-24 h;
2) Dilute the compound to 5 mM with DMSO. The 5 mM solution was used as the first concentration, and a 3-fold gradient dilution was performed, with a total of 9 concentration gradients, and the 10th concentration was used as the DMSO control;
3) Positive control antibody Atezolizumab was diluted to 4 μg/ml with assay buffer. 4 μg/ml was used as the first concentration, and a 2.5-fold gradient dilution was performed, with a total of 9 concentration gradients, and the 10th concentration was used as the assay buffer control;
4) Aspirate the medium from the 384-well plate. Add 10 μL/well of compound to the 384-well plate and incubate for 2 hours;
5) Resuscitate PD-1 effector cells and the cells were suspended and counted with cell recovery medium. The cells were diluted to […] with cell medium. Seed cells at density of 8000 cells/well to 384-wells plates of step 4, incubator for 17 h;
6) Add 20 μL/well of Bio-Glo luciferase reagent to the 384 reaction plate of step 5, and incubate at 25° C. for 5-30 minutes.
7) Read the RLU (relative luminescence unit) value using the Envision multi-plate reader. The experimental data were plotted using compound concentration as X value and RLU as Y value.

Chain of PD-1/PD-L1 (Q9NZQ7 19-238): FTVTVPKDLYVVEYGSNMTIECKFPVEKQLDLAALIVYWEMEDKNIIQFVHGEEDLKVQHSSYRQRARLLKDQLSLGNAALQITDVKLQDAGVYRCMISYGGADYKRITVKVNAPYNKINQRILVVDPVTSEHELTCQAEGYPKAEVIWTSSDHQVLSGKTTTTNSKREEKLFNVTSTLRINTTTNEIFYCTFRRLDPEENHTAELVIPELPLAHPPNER

IC50 (PD-1/PD-L1) [nM] | AUC [1] [ng·h/mL] | Cmax [1] [ng/mL] | Tmax [1] [h] | half-life [1] [h] | concentration at 0.5 h [2] [ng/mL] | concentration at 2 h [2] [ng/mL] | concentration at 4 h [2] [ng/mL] | SMILES | EC50 [3] [nM]
0.4 | 25700 | 2600 | 4 | 5.07 | 43.9 | 55.7 | 61.2 | Cc1c(-c2nc3cc(CN4CCCC4)c(OC(F)F)cc3o2)cccc1-c1cccc(-c2nc3cc(CN4CCC[C@H]4C(=O)O)c(OC(F)F)cc3o2)c1C [Example 5, ((6-(difluoromethoxy)-2-(3′-(6-(difluoromethoxy)-5-(pyrrolidin-1-ylmethyl)benzo[d]oxazol-2-yl)-2,2′-dimethyl-[1,1′-biphenyl]-3-yl)benzo[d]oxazol-5-yl)methyl)-L-proline] | 317
0.13 | 96400 | 5590 | 4 | 23.4 | 48.9 | 185 | 135 | Cc1c(-c2nc3cc(CN4CCC[C@H]4C(=O)O)c(OC(F)F)cc3o2)cccc1-c1cccc(-c2nc3cc(CN4CC(C)(C)C4)cc(C#N)c3o2)c1C [Example 103, ((2-(3′-(7-cyano-5-((3,3-dimethylazetidin-1-yl)methyl)benzo[d]oxazol-2-yl)-2,2′-dimethyl-[1,1′-biphenyl]-3-yl)-6-(difluoromethoxy)benzo[d]oxazol-5-yl)methyl)-L-proline] | 254
– | – | – | – | – | 20.6 | 88.5 | 44.3 | Cc1c(-c2nc3cc(CN4CCC[C@H]4C(=O)O)ccc3o2)cccc1-c1cccc(-c2nc3cc(CN4CCCC4)c(OC(F)F)cc3o2)c1C [Example 317, ((2-(3′-(6-(difluoromethoxy)-5-(pyrrolidin-1-ylmethyl)benzo[d]oxazol-2-yl)-2,2′-dimethyl-[1,1′-biphenyl]-3-yl)benzo[d]oxazol-5-yl)methyl)-L-proline] | 4700
– | – | – | – | – | – | – | – | Cc1c(-c2nc3cc(CN4CCC[C@H]4C(=O)O)ccc3o2)cccc1-c1cccc(-c2nc3cc(CN4CC(C)(C)C4)cc(C#N)c3o2)c1C [Example 318, ((2-(3′-(7-cyano-5-((3,3-dimethylazetidin-1-yl)methyl)benzo[d]oxazol-2-yl)-2,2′-dimethyl-[1,1′-biphenyl]-3-yl)benzo[d]oxazol-5-yl)methyl)-L-proline] | 3220
